For series [1] the following is noted: 40℃, 75% relative humidity; cited from earlier work.
The conditions of series [2]: by moisture in additives when formulated with usual excipients and binders; cited from earlier work.
A short description of series [3]: Optical purity (chiral HPLC) after storage for 4 weeks at 60℃, 75% relative humidity, exposed or sealed. The series is classed as physicochemical.

Regarding `O=C(O)CCCN1CCC(O[C@@H](c2ccc(Cl)cc2)c2ccccn2)CC1.O=S(=O)(O)c1ccccc1` [(S)-베포타스틴 벤젠술폰산염], the “formation of (R)-isomer and degradation products” value in series [1] is given as “(R)-배열의 이성체 및 분해물이 생성된다”.
Take `O=C(O)CCCN1CCC(O[C@@H](c2ccc(Cl)cc2)c2ccccn2)CC1` [유상의 (S)-베포타스틴]: the “racemization to the (R)-isomer” value in series [2] is recorded as “(R)-배열의 이성체로 라세미화가 일어나”. Also, the “optical purity after 4 weeks, exposed state” value in series [3] (exposed) came out at 95.56%. Moreover, in series [3] (exposed or sealed), the “optical purity after 4 weeks” value is given as 95.5~97.4%. The “optical purity after 4 weeks, sealed state” value in series [3] (sealed) was determined as 97.32%.

Values taken from patent KR20110136074A, “안정한 에스-베포타스틴 함유 약학조성물 및 이의 제조방법” (이우영, priority 2010, dated 2011).
